Measurements as given in patent US4900539A, “Radiohalogenated thienylethylamine derivatives for evaluating local cerebral blood flow” (The United States of America as represented by the United …, priority 1988, dated 1990).

Experiments:
[1] = Tissue distribution of 5-halothiophene-2-isopropylamines in Fisher rats (brain uptake and brain:blood); format: in vivo; settings: for tissue uptake at 5 min / tissue uptake at 0.5 h / tissue uptake at 1 h: rat, brain, read-out: Mean Brain, % Dose/gm
From the text: TISSUE DISTRIBUTION OF 5-HALOTHIOPHENE-
Mean Brain, % Dose/gm (Mean Brain:Blood)

[2] = IMP versus HIPDM, cited from earlier work

For CC(N)Cc1ccc([82Br])s1 (centres unmarked) [Br--82], the “brain uptake and retention (in words)” value [1] was “good brain uptake and retention”, the “Mean Brain:Blood” value ([1]; 5 min) was 10.4 and the “Mean Brain:Blood” value ([1]; 30 min) was 4.1. The “Mean Brain:Blood” value ([1]; 60 min) was 2.2, the tissue uptake at 5 min ([1]; 5 min) was 2.7 %ID/g and the tissue uptake at 0.5 h ([1]; 30 min) was 2.3 %ID/g. For the same compound, the tissue uptake at 1 h ([1]; 60 min) was 1.67 %ID/g.
With CC(N)Cc1ccc([125I])s1 (centres unmarked) [I--125] the “brain uptake and retention (in words)” value [1] was “high brain uptake and good retention”, the “brain-to-blood ratios (in words)” value [1] was “high brain-to-blood ratios” and the “Mean Brain:Blood” value ([1]; 5 min) was 6.0. The “Mean Brain:Blood” value ([1]; 30 min) was 3.7, the “Mean Brain:Blood” value ([1]; 60 min) was 2.1 and the tissue uptake at 5 min ([1]; 5 min) was 2.77 %ID/g. The tissue uptake at 0.5 h ([1]; 30 min) was 2.51 %ID/g and the tissue uptake at 1 h ([1]; 60 min) was 1.42 %ID/g.
For CC(C)NC(C)Cc1ccc(I)cc1 (centres unmarked) [IMP, N-isopropyl-p-iodoamphetamine], the “lung clearance relative to HIPDM” value [2] is listed as “clears the lungs faster” and the “amount of activity in the brain relative to HIPDM” value ([2]; five minutes after administration) is listed as “almost twice the amount of activity in the brain”.
